Test results: US5712297A, “Piperdine compounds and their preparation and use” (Novo Nordisk A/S, priority 1989, dated 1998)
Where a name gives a salt, the structure may show the parent alone.

Biological target: muscarinic acetylcholine receptors
Experiment: Inhibition of specific binding of 3H-Oxotremorine-M (3H-Oxo)
Parameters: species or system rat (male Wistar
Settings: rat cortex; 3H-Oxotremorine 1.0 nM; 20 mM Hepes pH 7.4; 30 min at 25° C.
Experimental: The pharmacological properties of the compounds of the present invention (Formula I) can be illustrated by determining their capability to inhibit the specific binding of ^3 H-Oxotremorine-M (^3 H-Oxo).
^3 H-Oxo labels muscarinic receptors in the CNS (with a preference for agonist domaines of the receptors). Three different sites are labelled by 3H-Oxo. These sites have affinity of 1.0, 20 and 3000 nM, respectively. Using the present experimental conditions only the high and medium affinity sites are determined. The inhibitory effects of compounds on ^3 H-Oxo binding reflects the affinity for muscarinic acetylcholine receptors.
All preparations are performed at 0°-4° C. unless otherwise indicated. Fresh cortex (0.1-1 g) from male Wistar rats (150-250 g) is homogenized for 5-10 s in 10 ml 20 mM Hepes pH: 7.4, with an Ultra-Turrax homogenizer. The homogenizer is rinsed with 10 ml of buffer and the combined suspension centrifuged for 15 min at 40,000×g. The pellet is washed three times with buffer. In each step the pellet is homogenized as before in 2×10 ml of buffer and centrifuged for 10 min at 40,000×g. The final pellet is homogenized in 20 mM Hepes pH: 7.4 (100 ml per g of original tissue) and used for binding assay. Aliquots of 0.5 ml is added 25 μl of test solution and 25 μl of ^3 H-Oxotremorine (1.0 nM, final concentration) mixed and incubated for 30 min at 25° C. Non-specific binding is determined in triplicate using Arecoline (1 μg/ml, final concentration) as the test substance. After incubation samples are added 5 ml of ice-cold buffer and poured directly onto Whatman GF/C glass fiber filters under suction and immediately washed 2 times with 5 ml of ice-cold buffer. The amount of radioactivity on the filters are determined by conventional liquid scintillation counting. Specific binding is total binding minus non-specific binding. Test substances are dissolved in 10 ml water (if necessary heated on a steam-bath for less than 5 minutes) at a concentration of 2.2 mg/ml. 25-75% inhibition of specific binding must be obtained before calculation of IC50.
The test value will be given as IC50 (the concentration (ng/ml) of the test substance which inhibits the specific binding of ^3 H-Oxo by 50%). [formula] where Co is specific binding in control assays and Cx is the specific binding in the test assay. (The calculations assume normal mass-action kinetics).

SMILES	Inhibition in vitro OXO BINDING (IC50: concentration which inhibits the specific binding of 3H-Oxo by 50%) [ng/mL]
CC#CCOc1nsnc1C1=CCCN(C)C1.O=C(O)C(=O)O [Compound 12, 3-(4-(2-butynyloxy)-1,2,5-thiadiazol-3-yl)-1,2,5,6-tetrahydro-1-methylpyridine oxalate]	0.3
CCCCCCCCc1nsnc1C1=CCCN(C)C1 [Compound 60, 3-(4-octyl-1,2,5-thiadiazol-3-yl)-1,2,5,6-tetrahydro-1-methylpyridinium oxalate]	164
CCCCCSc1nsnc1C1=CCCN(C)C1 [Compound 66, 3-(4-pentylthio-1,2,5-thiadiazol-3-yl)-1,2,5,6-tetrahydro-1-methylpyridineoxalate]	1.8
CN1CCC=C(c2nsnc2OCC2CC2)C1.O=C(O)C(=O)O [Compound 14, 3-(4-cyclopropylmethoxy-1,2,5-thiadiazol-3-yl)-1,2,5,6-tetrahydro-1-methylpyridine oxalate]	0.4
CCCCOCCOc1nsnc1C1=CCCN(C)C1.O=C(O)C(=O)O [Compound 41, 3-(4-(2-butoxyethoxy)-1,2,5-thiadiazol-3-yl)-1,2,5,6-tetrahydro-1-methylpyridine oxalate]	1.3
CN1CCC=C(c2nonc2Cl)C1.O=C(O)C(=O)O [Compound 52, 3-(4-chloro-1,2,5-oxadiazol-3-yl)-1,2,5,6-tetrahydro-1-methylpyridine oxalate]	65
CCCCCCCCSc1nsnc1C1=CCCN(C)C1.O=C(O)C(=O)O [Compound 64, 3-(4-octylthio-1,2,5-thiadiazol-3-yl)-1,2,5,6-tetrahydro-1-methylpyridine oxalate]	58
C=CCOc1nsnc1C1=CCCN(C)C1.O=C(O)C(=O)O [Compound 24, 3-(4-(2-propenyloxy)-1,2,5-thiadiazol-3-yl)-1,2,5,6-tetrahydro-1-methylpyridine oxalate]	0.4
CCCOc1nsnc1C1=CCCN(C)C1.O=C(O)C(=O)O [Compound 3, 1,2,5,6-tetrahydro-1-methyl-3-(4-propoxy-1,2,5-thiadiazol-3-yl)pyridine oxalate]	0.2
CCN1CCC=C(c2nsnc2Cl)C1.O=C(O)C(=O)O [Compound 19, 3-(4-chloro-1,2,5-thiadiazol-3-yl)-1-ethyl-1,2,5,6-tetrahydropyridine oxalate]	92
CCSc1nsnc1C1=CCCN(C)C1.O=C(O)C(=O)O [Compound 65, 3-(4-ethylthio-1,2,5-thiadiazol-3-yl)-1,2,5,6-tetrahydro-1-methylpyridine oxalate]	0.6
CCCCCCCCOc1nsnc1C1=CCCN(C)C1 [Compound 25, 3-(4-octyloxy-1,2,5-thiadiazol-3-yl)-1,2,5,6-tetrahydro-1-methylpyridineoxalate]	12
CCC#CCCOc1nsnc1C1=CCCN(C)C1.O=C(O)C(=O)O [Compound 26, 3-(4-(3-hexynyloxy) -1,2,5-thiadiazol-3-yl)-1,2,5,6-tetrahydro-1-methylpyridine oxalate]	0.4
CC(C)=CCOc1nsnc1C1=CCCN(C)C1.O=C(O)C(=O)O [Compound 27, 3-(4-(3-methyl-2-butenyloxy)-1,2,5-thiadiazol-3-yl)-1,2,5,6-tetrahydro-1-methylpyridine oxalate]	0.8
C=CC(C)Oc1nsnc1C1=CCCN(C)C1 (stereo not shown) [Compound 28, 3-(4-(3-butenyl-2-oxy)-1,2,5-thiadiazol-3-yl)-1,2,5,6-tetrahydro-1-methylpyridine oxalate]	1.3
CCCCOc1nonc1C1=CCCN(C)C1.O=C(O)C(=O)O [Compound 55, 3-(4-butyloxy-1,2,5-oxadiazol-3-yl)-1,2,5,6-tetrahydro-1-methylpyridine oxalate]	8

SMILES	Inhibition in vitro OXO BINDING (IC50: concentration which inhibits the specific binding of 3H-Oxo by 50%) [ng/mL]
CCCCOc1nsnc1C1=CCCNC1.O=C(O)C(=O)O [Compound 18, 3-(4-butoxy-1,2,5-thiadiazol-3-yl)-1,2,5,6-tetrahydropyridine oxalate]	3.6
CCCCOc1nsnc1C1=CCCN(C)C1.O=C(O)C(=O)O [Compound 4, 3-(4-butoxy-1,2,5-thiadiazol-3-yl)-1,2,5,6-tetrahydro-1-methylpyridine oxalate]	0.5
CC1CCN(c2nsnc2C2=CCCN(C)C2)CC1.O=C(O)C(=O)O [Compound 44, 3-(4-(4-methylpiperidino)-1,2,5-thiadiazol-3-yl)-1,2,5,6-tetrahydro-1-methylpyridine oxalate]	14
CCC/C=C/COc1nsnc1C1=CCCN(C)C1.O=C(O)C(=O)O [Compound 35, trans-3-(4-(2-hexenyloxy)-1,2,5-thiadiazol-3-yl)-1,2,5,6-tetrahydro-1-methylpyridine oxalate]	0.6
CCCCCCOc1nonc1C1=CCCN(C)C1.O=C(O)C(=O)O [Compound 54, 3-(4-hexyloxy-1,2,5-oxadiazol-3-yl)-1,2,5,6-tetrahydro-1-methylpyridine oxalate]	20
CN1CCC=C(c2cnsn2)C1.O=C(O)C(=O)O [Compound 36, 3-(1,2,5-thiadiazol-3-yl)-1,2,5,6-tetrahydro-1-methylpyridine oxalate]	0.3
CC(=O)Nc1nonc1C1=CCCN(C)C1 [Compound 51, 3-(4-acetylamino-1,2,5-oxadiazol-3-yl)-1,2,5,6-tetrahydro-1-methylpyridineoxalate]	300
CN1CCC=C(c2nsnc2CC2CC2)C1 [Compound 62, 3-(4-cyclopropylmethyl-1,2,5-thiadiazol-3-yl)-1,2,5,6-tetrahydro-1-methylpyridinium oxalate]	32
CCCc1nsnc1C1=CCCN(C)C1 [Compound 63, 3-(4-propyl-1,2,5-thiadiazol-3-yl)-1,2,5,6-tetrahydro-1-methylpyridinium oxalate]	25
CCOc1nsnc1C1=CCCN(CC)C1.O=C(O)C(=O)O [Compound 20, 3-(4-ethoxy-1,2,5-thiadiazol-3-yl)-1-ethyl-1,2,5,6-tetrahydropyridine oxalate]	5.9
CCOCCOc1nsnc1C1=CCCN(C)C1.O=C(O)C(=O)O [Compound 40, 3-(4-(2-ethoxyethoxy)-1,2,5-thiadiazol-3-yl)-1,2,5,6-tetrahydro-1-methylpyridine oxalate]	3.7
CCCSc1nsnc1C1=CCCN(C)C1 [Compound 47, 3-(4-propylthio-1,2,5-thiadiazol-3-yl)-1,2,5,6-tetrahydro-1-methylpyridineoxalate]	0.3
CN1CCC=C(c2cnon2)C1.O=C(O)C(=O)O [Compound 53, 3-(1,2,5-oxadiazol-3-yl)-1,2,5,6-tetrahydro-1-methylpyridine oxalate]	1.2
CCCCSc1nsnc1C1=CCCN(C)C1.O=C(O)C(=O)O [Compound 48, 3-(4-butylthio-1,2,5-thiadiazol-3-yl)-1,2,5,6-tetrahydro-1-methylpyridine oxalate]	0.6
C#CCOc1nsnc1C1=CCCN(C)C1.O=C(O)C(=O)O [Compound 13, 1,2,5,6-tetrahydro-1-methyl-3-(4-propargyloxy-1,2,5-thiadiazol-3-yl)pyridine oxalate]	0.3
